Measured values reported in patent US4826840A, “Cerebral protecting agent” (Taiyo Pharmaceutical Industry Co., Ltd., priority 1987, dated 1989).
Where a name gives a salt, the structure may show the parent alone.

Assays:
[1] = Protective effect against KCN death; format: in vivo, ddY male mice
Measurement of LD50 = conditions: mouse, in vivo
Description: ddY male mice having been preliminary bred in the same manner as Example 7 were orally given the test compounds to determine LD50.

[2] = test system: vertebral artery blood flow; assay: Effect on vertebral artery blood flow; format: in vivo, Male adult dogs; conditions: for Increase in VBF (Δ%): n = 3; for Increase of VBF (in words): i.v., anesthetized dogs
Method: (§1) Male adult dogs (weight: […]) were used for the experiment after they were preliminary bred in the metal cage for 1 week in a breeding room in which the temperature was controlled at 22±2° C. and the humidity was at 55±10%. They were given pelleted diet (CS, product of Oriental Yeast Co.) and water ad lib. Prior to submitting the animals to the experiment, they were fasted for 21-23 hours.
(§2) The dogs were anesthetized with sodium pentobarbital and probes for measuring the blood flows were fitted on the right vertebral artery and right common carotid artery. After measuring the control blood flows, the test compounds dissolved in physiological saline were intravenously administered. The vertebral artery blood flow (VBF) and the common carotid artery flow (CCBF) were measured to determine the increments of the blood flow resulting from administration of the test compounds.

[3] = Effect on brain ischemia model by MgCl2; format: in vivo, ddY male mice; conditions: for Survival Time: 2 h before saturated MgCl2 i.v.; for Prolongation of survival time (in words): doses of about 40 mg/kg, oral
Method: ddY male mice (age: 7 weeks) having been preliminary bred in the same manner as in Example 7 were fasted and orally administered with the test compounds dissolved in 0.3%methylcellulose solution. Two (2) hours later, 0.05 ml of saturated solution of MgCl2 was intravenously administered rapidly through the caudal vein. The […] was determined as the period of time until final gasping.

[4] = Effect on bicuculline convulsion; format: in vivo, Wister male rats; conditions: 1 h before bicuculline 1.75 mg/kg i.v.; for Inhibition of the tonic extension (in words): oral
Method: Each test compound was dissolved in 0.5% methylcellulose solution and orally administered to each mouse, and 1 hour later 1.75 mg/kg of bicuculline was given intravenously through caudal vein over the period of 15 seconds. Then, the tonic hindpaw extension was observed.

[5] = test system: common carotid artery blood flow; assay: Effect on common carotid artery blood flow; format: in vivo, Male adult dogs; conditions: for Increase in CCBF (Δ%): n = 3; for Increase of CCBF (in words): i.v., anesthetized dogs
Method: as §1, §2

[6] = 40 mg/kg p.o., 2 h before KCN 2.1 mg/kg i.v.

CCCCC1=C(C)c2cc3c(cc2C1N1CCN(CCC)CC1)OCO3 (centres unmarked) [Compound 5b]
Rate of Survival (%) [1, 6]: 56% | Survived Animals/Tested Animals [1, 6]: 5/9 | LD50 (Measurement of LD50; oral, ddY male mice): 510 mg/kg

CCCCC1=Cc2cc3c(cc2C1N1CCN(CCC)CC1)OCO3 (centres unmarked) [Compound 2b]
Rate of Survival (%) ([1]; mouse, in vivo): 50% | Survived Animals/Tested Animals ([1]; mouse, in vivo): 5/10 | Increase in VBF (Δ%) ([2]; 1 mg/kg i.v., 1 min): 7.2 ± 4.9 Δ% | Increase in VBF (Δ%) ([2]; 1 mg/kg i.v., 2 min): 18.6 ± 7.4 Δ% | Increase in VBF (Δ%) ([2]; 1 mg/kg i.v., 3 min): 24.6 ± 8.3 Δ% | Increase in VBF (Δ%) ([2]; 1 mg/kg i.v., 4 min): 17.6 ± 8.8 Δ% | Increase in VBF (Δ%) ([2]; 1 mg/kg i.v., 5 min): 3.7 ± 3.7 Δ% | Increase in VBF (Δ%) ([2]; 3 mg/kg i.v., 1 min): 43.1 ± 28.5 Δ% | Increase in VBF (Δ%) ([2]; 3 mg/kg i.v., 2 min): 74.3 ± 23.3 Δ% | Increase in VBF (Δ%) ([2]; 3 mg/kg i.v., 3 min): 78.2 ± 28.2 Δ% | Increase in VBF (Δ%) ([2]; 3 mg/kg i.v., 4 min): 40.5 ± 21.1 Δ% | Increase in VBF (Δ%) ([2]; 3 mg/kg i.v., 5 min): 18.5 ± 12.7 Δ% | Increase of VBF (in words) [2]: increased VBF and CCBF dose-dependently | Survival Time ([3]; 40 mg/kg oral): 28.3 ± 1.5 s | Survival Time ([3]; 80 mg/kg oral): 32.4 ± 1.5 s | Prolongation of survival time (in words) [3]: significant prolongation of survival time dose-dependency | LD50 (Measurement of LD50; po): 450 mg/kg | Animals Convulsed/Animals Tested ([4]; 5 mg/kg oral): 6/10 | Rate of Convulsion Inhibition (%) ([4]; 5 mg/kg oral): 40% | Animals Convulsed/Animals Tested ([4]; 10 mg/kg oral): 5/10 | Rate of Convulsion Inhibition (%) ([4]; 10 mg/kg oral): 50% | Animals Convulsed/Animals Tested ([4]; 15 mg/kg oral): 2/10 | Rate of Convulsion Inhibition (%) ([4]; 15 mg/kg oral): 80% | Animals Convulsed/Animals Tested ([4]; 20 mg/kg oral): 0/10 | Rate of Convulsion Inhibition (%) ([4]; 20 mg/kg oral): 100% | Inhibition of the tonic extension (in words) [4]: inhibited the tonic extension dose-dependency | Increase in CCBF (Δ%) ([5]; 1 mg/kg i.v., 1 min): 1.5 ± 1.5 Δ% | Increase in CCBF (Δ%) ([5]; 1 mg/kg i.v., 2 min): 5.2 ± 1.6 Δ% | Increase in CCBF (Δ%) ([5]; 1 mg/kg i.v., 3 min): 2.4 ± 1.2 Δ% | Increase in CCBF (Δ%) ([5]; 1 mg/kg i.v., 4 min): 1.4 ± 1.4 Δ% | Increase in CCBF (Δ%) ([5]; 1 mg/kg i.v., 5 min): -1.0 ± 1.0 Δ% | Increase in CCBF (Δ%) ([5]; 3 mg/kg i.v., 1 min): 7.1 ± 5.6 Δ% | Increase in CCBF (Δ%) ([5]; 3 mg/kg i.v., 2 min): 9.8 ± 7.4 Δ% | Increase in CCBF (Δ%) ([5]; 3 mg/kg i.v., 3 min): 4.6 ± 4.8 Δ% | Increase in CCBF (Δ%) ([5]; 3 mg/kg i.v., 4 min): -1.8 ± 4.3 Δ% | Increase in CCBF (Δ%) ([5]; 3 mg/kg i.v., 5 min): -5.9 ± 2.1 Δ% | Increase of CCBF (in words) [5]: increased VBF and CCBF dose-dependently

COC(=O)C1=C(C)NC(C)=C(C(=O)OCCN(C)Cc2ccccc2)C1c1cccc([N+](=O)[O-])c1 (centres unmarked) [nicardipine, reference compound]
Survival Time ([3]; 80 mg/kg oral): 24.3 ± 1.0 s

CCOC(=O)C1=C[C@]2(CC)CCCN3CCc4c(n1c1ccccc41)[C@@H]32 [vinpocetine, reference compound]
Survival Time ([3]; 80 mg/kg oral): 22.5 ± 1.1 s

CCCCC1=Cc2cc3c(cc2C1N1CCN(CCCC)CC1)OCO3 (centres unmarked) [Compound 3b]
Rate of Survival (%) [1, 6]: 33% | Survived Animals/Tested Animals [1, 6]: 3/9 | LD50 (Measurement of LD50; oral, ddY male mice): 430 mg/kg

CCCCC1=Cc2cc3c(cc2C1N1CCCN(CCC)CC1)OCO3 (centres unmarked) [Compound 4b]
Rate of Survival (%) [1, 6]: 56% | Survived Animals/Tested Animals [1, 6]: 5/9 | LD50 (Measurement of LD50; oral, ddY male mice): 373 mg/kg

CCCCC1=Cc2cc3c(cc2C1N1CCN(C)CC1)OCO3 (centres unmarked) [Compound 1c, Dihydrochloride of 1-(4-methylpiperazinyl)-2-n-butyl-5,6-methylenedioxyindene]
Rate of Survival (%) ([1]; mouse, in vivo): 78% | Survived Animals/Tested Animals ([1]; mouse, in vivo): 7/9 | Increase in VBF (Δ%) ([2]; 0.3 mg/kg i.v., 1 min): 6.3 ± 6.3 Δ% | Increase in VBF (Δ%) ([2]; 0.3 mg/kg i.v., 2 min): 19.7 ± 9.0 Δ% | Increase in VBF (Δ%) ([2]; 0.3 mg/kg i.v., 3 min): 32.2 ± 15.8 Δ% | Increase in VBF (Δ%) ([2]; 0.3 mg/kg i.v., 4 min): 26.5 ± 13.2 Δ% | Increase in VBF (Δ%) ([2]; 0.3 mg/kg i.v., 5 min): 16.1 ± 7.9 Δ% | Increase in VBF (Δ%) ([2]; 0.3 mg/kg i.v., 10 min): 12.5 ± 12.5 Δ% | Increase in VBF (Δ%) ([2]; 0.3 mg/kg i.v., 15 min): 15.5 ± 11.3 Δ% | Increase in VBF (Δ%) ([2]; 1 mg/kg i.v., 1 min): 9.6 ± 5.1 Δ% | Increase in VBF (Δ%) ([2]; 1 mg/kg i.v., 2 min): 59.6 ± 33.3 Δ% | Increase in VBF (Δ%) ([2]; 1 mg/kg i.v., 3 min): 74.5 ± 36.3 Δ% | Increase in VBF (Δ%) ([2]; 1 mg/kg i.v., 4 min): 68.9 ± 39.3 Δ% | Increase in VBF (Δ%) ([2]; 1 mg/kg i.v., 5 min): 39.2 ± 27.5 Δ% | Increase in VBF (Δ%) ([2]; 1 mg/kg i.v., 10 min): 14.0 ± 8.5 Δ% | Increase in VBF (Δ%) ([2]; 1 mg/kg i.v., 15 min): 11.7 ± 9.0 Δ% | Increase in VBF (Δ%) ([2]; 3 mg/kg i.v., 1 min): 44.2 ± 16.3 Δ% | Increase in VBF (Δ%) ([2]; 3 mg/kg i.v., 2 min): 154.7 ± 56.5 Δ% | Increase in VBF (Δ%) ([2]; 3 mg/kg i.v., 3 min): 173.7 ± 61.6 Δ% | Increase in VBF (Δ%) ([2]; 3 mg/kg i.v., 4 min): 143.6 ± 54.0 Δ% | Increase in VBF (Δ%) ([2]; 3 mg/kg i.v., 5 min): 111.4 ± 49.6 Δ% | Increase in VBF (Δ%) ([2]; 3 mg/kg i.v., 10 min): 65.8 ± 30.5 Δ% | Increase in VBF (Δ%) ([2]; 3 mg/kg i.v., 15 min): 37.5 ± 18.4 Δ% | Increase of VBF (in words) [2]: increased VBF and CCBF dose-dependently | Survival Time ([3]; 40 mg/kg oral): 28.8 ± 0.6 s | Survival Time ([3]; 80 mg/kg oral): 32.3 ± 0.6 s | Prolongation of survival time (in words) [3]: significant prolongation of survival time dose-dependency | LD50 (Measurement of LD50; po): 368 mg/kg | Animals Convulsed/Animals Tested ([4]; 1 mg/kg oral): 8/10 | Rate of Convulsion Inhibition (%) ([4]; 1 mg/kg oral): 20% | Animals Convulsed/Animals Tested ([4]; 5 mg/kg oral): 5/10 | Rate of Convulsion Inhibition (%) ([4]; 5 mg/kg oral): 50% | Animals Convulsed/Animals Tested ([4]; 10 mg/kg oral): 1/10 | Rate of Convulsion Inhibition (%) ([4]; 10 mg/kg oral): 90% | Animals Convulsed/Animals Tested ([4]; 15 mg/kg oral): 0/10 | Rate of Convulsion Inhibition (%) ([4]; 15 mg/kg oral): 100% | Inhibition of the tonic extension (in words) [4]: inhibited the tonic extension dose-dependency | Increase in CCBF (Δ%) ([5]; 0.3 mg/kg i.v., 1 min): 2.4 ± 1.3 Δ% | Increase in CCBF (Δ%) ([5]; 0.3 mg/kg i.v., 2 min): 4.5 ± 0.7 Δ% | Increase in CCBF (Δ%) ([5]; 0.3 mg/kg i.v., 3 min): 4.5 ± 0.7 Δ% | Increase in CCBF (Δ%) ([5]; 0.3 mg/kg i.v., 4 min): 4.5 ± 0.7 Δ% | Increase in CCBF (Δ%) ([5]; 0.3 mg/kg i.v., 5 min): 0.8 ± 2.7 Δ% | Increase in CCBF (Δ%) ([5]; 0.3 mg/kg i.v., 10 min): 0 ± 0 Δ% | Increase in CCBF (Δ%) ([5]; 0.3 mg/kg i.v., 15 min): 2.2 ± 2.8 Δ% | Increase in CCBF (Δ%) ([5]; 1 mg/kg i.v., 1 min): 5.2 ± 0.8 Δ% | Increase in CCBF (Δ%) ([5]; 1 mg/kg i.v., 2 min): 11.9 ± 4.7 Δ% | Increase in CCBF (Δ%) ([5]; 1 mg/kg i.v., 3 min): 13.9 ± 7.4 Δ% | Increase in CCBF (Δ%) ([5]; 1 mg/kg i.v., 4 min): 12.8 ± 7.2 Δ% | Increase in CCBF (Δ%) ([5]; 1 mg/kg i.v., 5 min): 6.4 ± 3.6 Δ% | Increase in CCBF (Δ%) ([5]; 1 mg/kg i.v., 10 min): 1.1 ± 1.1 Δ% | Increase in CCBF (Δ%) ([5]; 1 mg/kg i.v., 15 min): 3.6 ± 2.0 Δ% | Increase in CCBF (Δ%) ([5]; 3 mg/kg i.v., 1 min): 9.5 ± 2.7 Δ% | Increase in CCBF (Δ%) ([5]; 3 mg/kg i.v., 2 min): 19.0 ± 16.1 Δ% | Increase in CCBF (Δ%) ([5]; 3 mg/kg i.v., 3 min): 14.1 ± 18.0 Δ% | Increase in CCBF (Δ%) ([5]; 3 mg/kg i.v., 4 min): 12.7 ± 14.2 Δ% | Increase in CCBF (Δ%) ([5]; 3 mg/kg i.v., 5 min): 9.3 ± 10.8 Δ% | Increase in CCBF (Δ%) ([5]; 3 mg/kg i.v., 10 min): 6.1 ± 5.8 Δ% | Increase in CCBF (Δ%) ([5]; 3 mg/kg i.v., 15 min): 4.9 ± 5.0 Δ% | Increase of CCBF (in words) [5]: increased VBF and CCBF dose-dependently

CCCCC1=C(c2ccccc2)c2cc3c(cc2C1N1CCN(CCC)CC1)OCO3 (centres unmarked) [Compound 6b]
Rate of Survival (%) [1, 6]: 30% | Survived Animals/Tested Animals [1, 6]: 3/10 | LD50 (Measurement of LD50; oral, ddY male mice): 608 mg/kg
